According to patent publication US20180346513A1, “METHOD FOR OBTAINING TUMOR PEPTIDES AND USES THEREOF” (ISTITUTO EUROPEO DI ONCOLOGIA S.R.L., priority 2015, published 2018):
Where a SMILES comes first, the peptide text is derived from it. The star is where a group is joined. Cbz = O=C(OCc1ccccc1)*

Key:
[1] = tested on: Salmonella SL3261AT; assay: Antibody response (total IgG, ELISA) to Salmonella after immunization with supernatant in IFA; type: in vivo, mice; conditions: B16 cells treated with inhibitor before supernatant collection
Method: (§1) Mice were immunized subcutaneusly with 100 μL of emulsion with supernatant containing released peptides and either Freund's Complete Adjuvant (CFA) or Freund's Incomplete Adjuvant (IFA). Nine days after the immunization, mice were killed, popliteal lymph nodes were smashed and cells were plated in flat-bottom 96-well plates and stimulated with PPD (3 μg/mL), OVA protein (30 μg/mL), OVA peptide 323-339 (3 μg/mL) or OVA peptide 257-264 (3 μg/mL). After 72 hours, the supernatant was collected and IFN-γ production was measured by ELISA.
(§2) To evaluate antibody response mice were killed four weeks after immunization, and serum was collected. The antibody titer to Salmonella and B16 antigens was evaluated by ELISA.
(§3) In order to identify the type of released tumor antigens, C57BL/6J mice were immunized subcutaneously with supernatant obtained from Salmonella infected or uninfected B16 cells treated or not with the gap-junction blocker (heptanol) or the proteasome inhibitor (MG132), emulsified with Freund's Incomplete adjuvant (IFA). Four weeks later inventors evaluated the amount of total IgG specific to Salmonella SL3261AT and to mouse melanoma cell line B16 by ELISA.

[2] = tested on: mouse melanoma cell line B16; assay: Antibody response (total IgG, ELISA) to B16 after immunization with supernatant in IFA; type: in vivo, mice; conditions: B16 cells treated with inhibitor before supernatant collection
Method: as §1, §2, §3

[3] = target: T1, connexin hemichannels on the surface of melanoma cells (Mus musculus, UniProt P23242); assay: Adenosine 5'-triphosphate (ATP) bioluminescent assay, extracellular ATP of B16 and B16 OVA cells; type: cell-based; conditions: B16 and B16 OVA cells pretreated with heptanol (1 mM)
T1 construct: opening of connexin hemichannels on the surface of melanoma cells; endogenous in cells; host or cells: B16 and B16 OVA mouse melanoma cells
T1 sequence (P23242 2-382): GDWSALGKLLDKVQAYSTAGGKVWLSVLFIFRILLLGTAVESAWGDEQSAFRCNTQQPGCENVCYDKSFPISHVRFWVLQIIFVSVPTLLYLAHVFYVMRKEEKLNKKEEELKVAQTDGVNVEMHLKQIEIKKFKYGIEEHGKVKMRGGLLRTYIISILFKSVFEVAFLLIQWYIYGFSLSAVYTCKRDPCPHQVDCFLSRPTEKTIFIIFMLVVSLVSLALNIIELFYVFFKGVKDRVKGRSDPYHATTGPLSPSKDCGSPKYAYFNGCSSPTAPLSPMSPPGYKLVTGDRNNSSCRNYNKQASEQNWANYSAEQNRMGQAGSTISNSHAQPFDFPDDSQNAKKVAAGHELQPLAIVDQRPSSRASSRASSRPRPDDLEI
Method: Single bacterial colonies were grown overnight and restarted the next day to reach an absorbance at 600 nm ranging between 0.550 and 0.650 corresponding to 0,550-0,650×10^9 colony—forming units (CFUs)/mL. Tumor cells were incubated with or without Gap Junctions blocker, Heptanol (1 mM) for 1 hour and half at 37° C. Then, cells were incubated with bacteria for 1 hour and half at 37° C. at a cell-to-bacteria ratio of 1:50, in the appropriate medium without antibiotics. After incubation, the cells were washed and incubated at 37° C. in medium supplemented with gentamicin ([…]) for 2 hours. […]
Adenosine 5′-triphosphate (ATP) Biolumescent Assay (CellTiter-Glo Luminescent cell viability Assay, Promega) allow to measure the quantity of ATP containing in the samples. […]
Briefly, 100 μL of Assay Mix solution were added to a reaction vial for 3 minutes at room temperature; then rapidly were added […] of sample diluent, mixed and immediately measured the amount of light produced. […]
In order to assess whether Salmonella is able to stimulate the opening of connexin hemichannels on the surface of melanoma cells, inventors measured ATP extracellular concentration using an adenosine 5′-thriphosfate (ATP) bioluminescent assay (as described in Materials and Methods) in Salmonella treated B16 cells. […]

[4] = tested on: MHC class I complex on the surface of T2 cells; assay: T2 assay for peptide binding (stabilization of HLA-A0201 on T2 cells); type: cell-based, human; conditions: tumor cells treated with the gap junction blocker before infection
Method: The next day, the cells were washed with FACS buffer (PBS, 0.1% sodium azide, 5% fetal bovin serum) and incubated for 10 min with blocking buffer (200 μg/mL mouse IgG in FACS buffer). Then, the cells were incubated for 20 minutes at +4° C. with BB7.2, an HLA-A2 conformation specific mouse antibody. The cells were washed twice with FACS buffer and fixed in paraformaldehyde for later acquisition by Accuri C6 Flow Cytometer (BD).
In order to investigate the release of MHC class I peptides by Salmonella infected tumor cells, inventors exploited the ability of exogenous peptides to stabilize the MHC class I complex on the surface of T2 cells. T2 are an HLA-A0201 hybrid human cell line lacking TAP-2 (transporter-associated with antigen processing) and consequently are defective in loading class I molecules with antigenic peptides generated in the cytosol. This leads to very unstable MHC class I molecules on the cell surface. […]
Briefly, inventors infected human melanoma cells SKmel-24 and colorectal adenocarcinoma cells HT29, with Vivofit®, an oral typhoid vaccine that contains live, attenuated cells of the bacteria Salmonella enterica serovar Thyphi (TY21a), and inventors collected the supernatant as described in Materials and Methods. […] Surface expression of HLA-A0201 was evaluated using a conformation-specific mouse antibody, as described in Materials and Methods.

[5] = tested on: Mart-1 (26-35) specific CTLs; assay: IFN-gamma production of Mart-1 specific CTLs cocultured with moDCs or PDC loaded with supernatant; type: cell-based, human
Method: To generate peptide-specific CTLs from PBMC, 106 PBMC HLA-A2+ were cultured in 1 mL of RPMI 1640 medium (supplemented with 5% human serum, 2 mM L-Glutamine, 100 U/mL Penicillin, 100 μg/mL Streptomycin, 10 μg/mL Gentamicin, 10 μg/mL beta-mercaptoethanol and 1% nonessential amino acids) in 24-well-plates. To this, 2×106 Mart-1-pulsed and irradiated (10 Gy) PBMC (HLA-A2) were added as antigen presenting cells in the same medium supplemented with 100 U/mL IL-2. To pulse PBMC they were incubated for 90 minutes at 37° C. in RPMI supplemented with 50 μM of peptide. After incubation, cell were washed twice and irradiated before mixing with the responding cells. The cells were stimulated at intervals of 10 days with irradiated peptide-pulsed autologous PBMC and 100 U/mL IL-2.
To evaluate the release of antigenic peptides inventors infected human melanoma cells SKmel24 and 624.38 with Salmonella TY21a in presence or not of heptanol and the supernatant was harvested as described in Materials and Methods.
After 72 hours of coculture, the amount of IFN-gamma secretion was measured by ELISA.

[6] = tested on: C57BL/6J mice; assay: In vivo immunization with supernatant in CFA, IFN-gamma after in vitro recall of lymph node cells; conditions: B16 OVA cells treated with heptanol
Method: Mice were immunized subcutaneusly with 100 μL of emulsion with supernatant containing released peptides and either Freund's Complete Adjuvant (CFA) or Freund's Incomplete Adjuvant (IFA). […] After 72 hours, the supernatant was collected and IFN-γ production was measured by ELISA.
To investigate whether the tumor peptides released from infected tumor cells could induce an in vivo immune response, C57BL/6J mice were immunized in the footpad with supernatant, obtained from B16 OVA cells infected or not with Salmonella SL3261AT, emulsified with Freund's complete adjuvant (CFA).
Briefly, nine days after immunization, the popliteal lymph nodes were removed and cells were stimulated in vitro with PPD (Tuberculin purified protein derivated), as a positive control, and OVA protein. After 72 hours of incubation, the amount of IFN-gamma secretion was assessed by ELISA to evaluate the activation of immune cells.

| Compound | Effect on antibody response to Salmonella antigens [1] | Effect on antibody response to B16 tumor peptides [2] | Effect on Salmonella-induced release of extracellular ATP [3] | Effect on the MFI increase by supernatant of infected tumor cells [4] | Effect on CTL activation by supernatant of infected melanoma cells ([5]; tumor cells treated with the gap junction blocker) | Effect on IFN-gamma production induced by supernatant immunization [6] | Response of CTLs after exogenous addition of peptide ([5]; exogenous addition to blocker-treated condition) |
| --- | --- | --- | --- | --- | --- | --- | --- |
| CC(C)C[C@@H](C=O)NC(=O)[C@H](CC(C)C)NC(=O)[C@H](CC(C)C)NC(=O)OCc1ccccc1 [MG132] (Cbz-Leu-Leu-Leu-aldehyde) | reduced | reduced |  |  |  |  |  |
| CCCCCCCO [heptanol] | reduced | reduced | significantly reduced | abolished | significantly inhibits | reduced |  |
| Mart-1 (26-35): Mart-1 (26-35) peptide, positive control |  |  |  |  |  |  | restored completely the response |
